Assay results: patent US4939122A, “Lipophile derivatives of muramylpeptides having properties of activating macrophages and compositions containing them” (priority 1984, dated 1990)
Where “and” joins values, the source holds several entries; their conditions need not be identical. Identical values can stand only once. Like-named read-outs stand apart in the source and are kept apart here.

What was measured:
[1] = system: Klebsiella pneumoniae; test: Anti-infectious activity in Swiss mice infected i.v. with Klebsiella pneumoniae; assay type: in vivo; settings: for protective activity against lethal Klebsiella pneumoniae infection (in words): summary of observations
Procedure: In the Tables VII to XI are indicated the conditions in which the substances were administered and, according to the considered cases, the number of mice surviving 10 or 15 days later and the corresponding percentages of protection with respect to controls.

[2] = Retention of the muramylpeptide in liposomes incubated in MEM-FCS medium at 37° C.; assay type: physicochemical
Procedure: Liposomes produced under the same conditions, but with muramylpeptides labeled with tritium have enabled the following observations. […] The incorporation of the MDP-GDP and the stability of the latter, has also been verified in reaction tests with anti-MDP monoclonal antibodies. After incubation of these liposomes in the same medium at 37° C. for 72 hours, there is observed a constant agglutination of the liposomes with the antibody (95% of the liposome being agglutinated), this observation bearing witness to the practical absence of any loss of MDP-GDP. […] The leakage, if it was produced, would have been manifested by a decrease in the intensity of agglutination with time.

[3] = Pyrogenicity in rabbits (European Pharmacopoea); assay type: in vivo, rabbit; settings: 1 mg/kg; groups of three rabits, individual animals
Description: Certain of the compounds according to the invention show at relatively high doses, a certain pyrogenicity, whose impact is however reduced, taking into account the particularly higher therapeutic index from which they appear to benefit. This being the case, the muramylpeptides in which the group of modification by the two lipophile chains is fixed to the 6 position of the saccharide group, and of which the peptide chain is terminated by a glutamy-alpha-ester-gamma-amide group, are particularly advantageous by reason of their more reduced pyrogenicity. Testimony thereof is borne by comparative pyrogenicity measurements carried out on groups of three rabits with the two compounds more particularly studied, according to the procedure of the European Pharmacopoea, Vol. 2, 1971, pages 58-60. In fact, the following results are obtained, expressed by temperature observations observed in experimental animals to which had previously been administered 1 mg/kg of the compounds studied: for the MDP-GDP : 1°; 0.9° and 1° C.; for the 6 -0-GDP-MDPG-OnBu : 0.2°; 0.3° and 0.5° C.

[4] = system: bovine serumalbumin; test: Adjuvant activity in the Swiss female mouse, passive hemagglutination titer; assay type: in vivo; settings: for Primary response, passive hemagglutination titer: 100 micrograms with 500 micrograms of bovine serumalbumin at day 0, day 21, serums titrated in pools; for Secondary response, passive hemagglutination titer: booster of antigen alone at day 30, day 36, titrated separately
Procedure: At day 0, 100 micrograms of C474 were injected with 500 micrograms of bovine serumalbumin. At day 30, the animals received a booster of 100 micrograms of antigen alone. The following results were obtained:
The titers are expressed in Log 2 of the passive hemagglutination titer. At day 21, the serums were titrated in pools; at day 36, they were titrated separately.

[5] = system: Candida albicans; test: Protection of mice infected by the venous route with Candida albicans; assay type: in vivo
[6] = system: influenza virus suspension APR/8; assay type: in vivo; settings: preventive, 0.1 mg per mouse
[7] = Table X, 100 μg i.v. at day -1, 10^4 K. pneumoniae
[8] = Table XI, 2 × 10^6 Candida albicans, muramylpeptide 100 μg/day/4 days i.v. (-4 to -1), amphotericin B 3 μg subcutaneously on the day of infection
[9] = Table XI, 2 × 10^6 Candida albicans, muramylpeptide 100 μg/day/4 days i.v., amphotericin B 3 μg subcutaneously
[10] = Table IX, 5 × 10^4 K. pneumoniae, Gentamicin 10 μg subcutaneously 2 hours after infection, MDP or MDP-GDP 30 μg intravenously 24 hours before
[11] = Table VII, aqueous suspension, 100 μg i.v. at day -1, 10^4 K. pneumoniae

| Molecule | Protection (%) [1, 7] | Survival (15 d) [1, 7] | retention of the muramylpeptide in the liposomes (in words) [2] | protective activity against lethal Klebsiella pneumoniae infection (in words) [1] | Survival (10 d) [5, 8] | Protection (%) [1, 11] | Survival (15 d) [1, 11] | further results |
| --- | --- | --- | --- | --- | --- | --- | --- | --- |
| 6-O-(beta, gamma-dipalmitoyl-L-glycerol)-capryl -N-acetyl-muramyl-L-alanyl-D-glutamine-n-butyl ester [6-0-GDP-aminocaproyl-MDPG-OnBu] | 56% | 9/16 | Quite similar observations | – | – | – | – | – |
| 6-O-(beta, gamma-dipalmitoyl-L-glyceryl)-N-acetyl-muramyl-L-alanyl-D-glutamine-n-buty l-ester [6-0-GDP-MDPG-OnBu] | – | – | Quite similar observations | protective activity comparable | – | – | – | temperature observations (pyrogenicity) [3]: 0.2 °C and 0.3 °C and 0.5 °C; Primary response, passive hemagglutination titer [4]: 2.64 Log 2; Secondary response, passive hemagglutination titer [4]: 8.6 Log 2 |
| C[C@@H]1[C@H](O)[C@@H](C)/C=C/C=C/C=C/C=C/C=C/C=C/C=C/[C@H](O[C@@H]2O[C@H](C)[C@@H](O)[C@H](N)[C@@H]2O)C[C@@H]2O[C@](O)(C[C@@H](O)C[C@@H](O)[C@H](O)CC[C@@H](O)C[C@@H](O)CC(=O)O[C@H]1C)C[C@H](O)[C@H]2C(=O)O [Amphotericin B, reference compound] | – | – | – | – | 2/16 | – | – | Protection [5, 9]: 13 |
| CCCCCCCCCCCCCCCC(=O)OCC(COC(=O)[C@H](C)NC(=O)CC[C@@H](NC(=O)[C@@H](C)NC(=O)[C@@H](C)O[C@H]1[C@H](O)[C@@H](CO)OC(O)[C@@H]1NC(C)=O)C(N)=O)OC(=O)CCCCCCCCCCCCCCC (stereo partly drawn) [MDP(D,D)-L-Ala-GDP, alpha (N-acetyl-muramyl-D-alanyl-D-isoglutaminyl-L-alanine) beta, gamma-dipalmitoyl-sn-glycerol] | 25% | 6/16 | Quite similar observations | although active, is less so than MDP-L-Ala-GDP | – | – | – | – |
| CCCCCCCCCCCCCCCC(=O)OC[C@@H](COC(=O)CC[C@@H](NC(=O)[C@H](C)NC(=O)[C@@H](C)O[C@H]1[C@H](O)[C@@H](CO)OC(O)[C@@H]1NC(C)=O)C(N)=O)OC(=O)CCCCCCCCCCCCCCC (stereo partly drawn) [MDP-GDP, alpha (N-acetyl-muramyl-L-alanyl-D-isoglutamine), beta, gamma-dipalmitoyl-sn-glycerol] | – | – | – | protective activity comparable | 3/16 | 65% | 32/48 | Protection (%) [1, 10]: 16%; Survival (15 d) [1, 10]: 4/24; protective activity when injected in liposomes (in words) ([1]; in liposomes): the most active; survival ([6]; orally): 56%; survival ([6]; subcutaneously): 44%; Protection [5, 9]: 19; Protection ([5]; Table XII, aqueous suspension IOO μg × 4): 75%; Survival (10 d) ([5]; Table XII, aqueous suspension IOO μg × 4, days -4, -3, -2, and -1, 10^6 Candida albicans): 6/8; activity against Candida (in words) ([5]; in vivo): active; Primary response, passive hemagglutination titer [4]: 3.64 Log 2; Secondary response, passive hemagglutination titer [4]: 10.27 Log 2 |
| CCCCCCCCCCCCCCCC(=O)OCC(COC(=O)[C@H](C)NC(=O)CC[C@@H](NC(=O)[C@H](C)NC(=O)[C@@H](C)O[C@H]1[C@H](O)[C@@H](CO)OC(O)[C@@H]1NC(C)=O)C(N)=O)OC(=O)CCCCCCCCCCCCCCC (stereo partly drawn) [MDP-L-Ala-GDP, alpha (N-acetyl-muramyl-L-alanyl-D-isoglutaminyl-L-alanine), beta, gamma-dipalmitoyl-sn-glycerol] | 63% | 12/16 | Quite similar observations | – | – | – | – | – |
| CCCCOC(=O)[C@@H](CCC(N)=O)NC(=O)[C@H](C)NC(=O)[C@@H](C)O[C@H]1[C@H](O)[C@@H](CO)OC(O)[C@@H]1NC(C)=O (some centres unmarked) [MDPG-OnBu, reference compound] | – | – | – | – | – | 62.5% | 20/32 | – |
| Gentamicin [reference compound] | – | – | – | – | – | – | – | Protection (%) [1, 10]: 21%; Survival (15 d) [1, 10]: 5/24 |
| alpha (N-acetyl-muramyl-D-alanyl-D-isoglutamine), beta, gamma-dipalmitoyl-sn-glycerol [MDP(D,D)-GDP] | – | – | Quite similar observations | protective activity comparable | 0/16 | 83.3% | 20/24 | – |
